Laboratory results: ChEMBL document CHEMBL6103629 (J Med Chem, 2025)
Activity calls are given as the source filed them. No cut-off for these calls is given here.

How the values were obtained:
[1] = molecular target: Serine/threonine-protein kinase ATR (Homo sapiens, UniProt Q13535); assay: Inhibition of ATR (unknown origin) assessed as reduction in p53 phosphorylation level incubated for 30 mins by TR-FRET assay
CWR22R [2] = assay: Antiproliferative activity against human 22Rv1 cells incubated for 120 hrs by Cell-titer Glo luminescent assay; settings: 22Rv1, 120 h
T-24 = assay: Antiproliferative activity against human T24 cells assessed as reduction in cell viability incubated for 120 hrs by Cell-titer Glo luminescent assay; format: functional, cell-based
NCI-H69 = assay: Antiproliferative activity against human NCI-H69 cells assessed as reduction in cell viability incubated for 120 hrs by Cell-titer Glo luminescent assay; format: functional, cell-based
LoVo [3] = assay: Inhibition of DNA damage repair in human LoVo cells assessed as upregulation of p-Histone H2A.X protein level at 0.3 to 1 uM incubated for 24 hrs by Western blot analysis; format: functional, cell-based; settings: dose 0.3-1 µM
CWR22R [4] = assay: Antitumor activity against human 22Rv1 cells xenografted in male Balb/c nude mouse assessed as tumor growth inhibition at 10 to 60 mg/kg QD, po measured every 3 days for 18 days; format: functional, organism-based; settings: dose 10-60 mg/kg, time 18.0 day
LoVo [5] = assay: Inhibition of DNA damage repair in human LoVo cells assessed as decrease in MRE11 expression level incubated for 24 hrs by Western blot analysis; format: functional, cell-based; settings: dose 0.3-1 µM
MDA-MB-453 = assay: Antiproliferative activity against human MDA-MB-453 cells assessed as reduction in cell viability incubated for 120 hrs by Cell-titer Glo luminescent assay; format: functional, cell-based
MDA-MB-436 = assay: Antiproliferative activity against human MDA-MB-436 cells assessed as reduction in cell viability incubated for 120 hrs by Cell-titer Glo luminescent assay; format: functional, cell-based
CWR22R [6] = assay: Antiproliferative activity against human 22Rv1 cells incubated for 120 hrs by Cell-titer Glo luminescent assay
[7] = molecular target: Kappa-type opioid receptor (Homo sapiens) (UniProt P41145); assay: Inhibition of human kappa opioid at 10 uM; settings: time 75.0 min
HCT-116 = assay: Antiproliferative activity against human HCT-116 cells assessed as reduction in cell viability incubated for 120 hrs by Cell-titer Glo luminescent assay; format: functional, cell-based
Homo sapiens = organism: Homo sapiens; assay: Inhibition of DNA-PK (unknown origin) at 10 uM preincubated for 15 mins and measured after 60 mins by Z-LYTE screening relative to control; settings: time 75.0 min
MDA-MB-231 = assay: Antiproliferative activity against human MDA-MB-231 cells assessed as reduction in cell viability incubated for 120 hrs by Cell-titer Glo luminescent assay; format: functional, cell-based
JeKo-1 [8] = assay: Antiproliferative activity against human JeKo-1 cells assessed as reduction in cell viability incubated for 120 hrs by Cell-titer Glo luminescent assay; format: functional, cell-based
LoVo [9] = assay: Inhibition of DNA damage repair in human LoVo cells assessed as decrease in Chk1 expression level incubated for 24 hrs by Western blot analysis; format: functional, cell-based; settings: dose 0.3-1 µM
KATO III = assay: Antiproliferative activity against human KATO III stomach cancer cell line assessed as reduction in cell viability incubated for 120 hrs by Cell-titer Glo luminescent assay; format: functional, cell-based
[10] = molecular target: Serine/threonine-protein kinase mTOR (Homo sapiens, UniProt P42345); assay: Inhibition of mTOR (unknown origin) at 10 uM preincubated for 15 mins and measured after 60 mins by Z-LYTE screening relative to control; settings: time 75.0 min
MCF7 = assay: Antiproliferative activity against human MCF7 cells assessed as reduction in cell viability incubated for 120 hrs by Cell-titer Glo luminescent assay; format: functional, cell-based
LoVo [11] = assay: Induction of cell cycle arrest in human LoVo cells assessed as accumulation of cells at G2 phase incubated for 24 hrs by PI staining based flow cytometric analysis; format: functional; settings: dose 1-3 µM
HepG2 = assay: Antiproliferative activity against human HepG2 cells assessed as reduction in cell viability incubated for 120 hrs by Cell-titer Glo luminescent assay; format: functional, cell-based
LoVo [12] = assay: Inhibition of DNA damage repair in human LoVo cells assessed as decrease in RAD51 expression level incubated for 24 hrs by Western blot analysis; format: functional, cell-based; settings: dose 0.3-1 µM
U2OS = assay: Antiproliferative activity against human U2OS cells assessed as reduction in cell viability incubated for 120 hrs by Cell-titer Glo luminescent assay; format: functional, cell-based
JeKo-1 [13] = assay: Antitumor activity against human JeKo-1 cells xenografted in female CB17 SCID mouse at 40 mg/kg BID, po administered as 3 days on and 4 days off schedule for 24 days; format: functional, organism-based; settings: time 24.0 day
[14] = molecular target: Proto-oncogene tyrosine-protein kinase ROS (Homo sapiens) (UniProt P08922); assay: Inhibition of ROS1 (unknown origin) at 10 uM preincubated for 15 mins and measured after 60 mins by Z-LYTE screening relative to control; settings: time 75.0 min
OVCAR-8 = assay: Antiproliferative activity against human OVCAR-8 cells assessed as reduction in cell viability incubated for 120 hrs by Cell-titer Glo luminescent assay; format: functional, cell-based
NCI-H1703 [15] = assay: Antiproliferative activity against human NCI-H1703 cells assessed as reduction in cell viability incubated for 120 hrs by Cell-titer Glo luminescent assay; format: functional, cell-based
Huh-7 = assay: Antiproliferative activity against human Huh-7 cells assessed as reduction in cell viability incubated for 120 hrs by Cell-titer Glo luminescent assay; format: functional, cell-based
A2780 = assay: Antiproliferative activity against human A2780 cells assessed as reduction in cell viability incubated for 120 hrs by Cell-titer Glo luminescent assay; format: functional, cell-based
[16] = molecular target: Phosphatidylinositol 4-phosphate 3-kinase C2 domain-containing subunit beta (Homo sapiens) (UniProt O00750); assay: Inhibition of PIK3C2B (unknown origin) at 10 uM preincubated for 15 mins and measured after 60 mins by Z-LYTE screening relative to control; settings: time 75.0 min
SK-OV-3 = assay: Antiproliferative activity against human SK-OV-3 cells assessed as reduction in cell viability incubated for 120 hrs by Cell-titer Glo luminescent assay; format: functional, cell-based
A549 = assay: Antiproliferative activity against human A549 cells assessed as reduction in cell viability incubated for 120 hrs by Cell-titer Glo luminescent assay; format: functional, cell-based
LNCaP = assay: Antiproliferative activity against human LNCaP cells assessed as reduction in cell viability incubated for 120 hrs by Cell-titer Glo luminescent assay; format: functional, cell-based
LoVo [17] = assay: Induction of apoptosis in human LoVo cells assessed as early apoptotic cells at 3 uM incubated for 24 hrs by Annexin-V-FITC-PI staining based flow cytometric analysis (reference value: 13.7 %); format: functional
JeKo-1 [18] = assay: Antitumor activity against human JeKo-1 cells xenografted in female CB17 SCID mouse assessed as tumor growth inhibition at 50 mg/kg BID, po measured every 2 days for 24 days relative to control; format: functional; settings: JeKo-1, 576 h, time 24 day, read-out: TGI
LoVo [19] = assay: Induction of apoptosis in human LoVo cells assessed as late apoptotic cells at 3 uM incubated for 24 hrs by Annexin-V-FITC-PI staining based flow cytometric analysis (reference value: 13.2 %); format: functional
LoVo [20] = assay: Induction of apoptosis in human LoVo cells assessed as necrotic cells at 3 uM incubated for 24 hrs by Annexin-V-FITC-PI staining based flow cytometric analysis (reference value: 0.97 %); format: functional
NCI-H1703 [21] = assay: Antitumor activity against human NCI-H1703 cells xenografted in female Balb/c nude mouse assessed as tumor growth inhibition at 50 mg/kg QD, po measured every 3 days for 28 days by vernier caliper based analysis relative to control; format: functional; settings: NCI-H1703, 672 h, time 28 day, read-out: TGI
LoVo [22] = assay: Antitumor activity against human LoVo cells xenografted in female Balb/c nude mouse assessed as tumor growth inhibition at 50 mg/kg QD, po measured every 3 days for 25 days relative to control; format: functional; settings: 600 h, time 25 day, read-out: TGI
LoVo [23] = assay: Induction of apoptosis in human LoVo cells assessed as viable cells at 3 uM incubated for 24 hrs by Annexin-V-FITC-PI staining based flow cytometric analysis (reference value: 72.1 %); format: functional; settings: read-out: Activity
NCI-H146 = assay: Antiproliferative activity against human NCI-H146 cells; format: functional, cell-based

Serine/threonine-protein kinase ATR, sequence (Q13535 whole entry): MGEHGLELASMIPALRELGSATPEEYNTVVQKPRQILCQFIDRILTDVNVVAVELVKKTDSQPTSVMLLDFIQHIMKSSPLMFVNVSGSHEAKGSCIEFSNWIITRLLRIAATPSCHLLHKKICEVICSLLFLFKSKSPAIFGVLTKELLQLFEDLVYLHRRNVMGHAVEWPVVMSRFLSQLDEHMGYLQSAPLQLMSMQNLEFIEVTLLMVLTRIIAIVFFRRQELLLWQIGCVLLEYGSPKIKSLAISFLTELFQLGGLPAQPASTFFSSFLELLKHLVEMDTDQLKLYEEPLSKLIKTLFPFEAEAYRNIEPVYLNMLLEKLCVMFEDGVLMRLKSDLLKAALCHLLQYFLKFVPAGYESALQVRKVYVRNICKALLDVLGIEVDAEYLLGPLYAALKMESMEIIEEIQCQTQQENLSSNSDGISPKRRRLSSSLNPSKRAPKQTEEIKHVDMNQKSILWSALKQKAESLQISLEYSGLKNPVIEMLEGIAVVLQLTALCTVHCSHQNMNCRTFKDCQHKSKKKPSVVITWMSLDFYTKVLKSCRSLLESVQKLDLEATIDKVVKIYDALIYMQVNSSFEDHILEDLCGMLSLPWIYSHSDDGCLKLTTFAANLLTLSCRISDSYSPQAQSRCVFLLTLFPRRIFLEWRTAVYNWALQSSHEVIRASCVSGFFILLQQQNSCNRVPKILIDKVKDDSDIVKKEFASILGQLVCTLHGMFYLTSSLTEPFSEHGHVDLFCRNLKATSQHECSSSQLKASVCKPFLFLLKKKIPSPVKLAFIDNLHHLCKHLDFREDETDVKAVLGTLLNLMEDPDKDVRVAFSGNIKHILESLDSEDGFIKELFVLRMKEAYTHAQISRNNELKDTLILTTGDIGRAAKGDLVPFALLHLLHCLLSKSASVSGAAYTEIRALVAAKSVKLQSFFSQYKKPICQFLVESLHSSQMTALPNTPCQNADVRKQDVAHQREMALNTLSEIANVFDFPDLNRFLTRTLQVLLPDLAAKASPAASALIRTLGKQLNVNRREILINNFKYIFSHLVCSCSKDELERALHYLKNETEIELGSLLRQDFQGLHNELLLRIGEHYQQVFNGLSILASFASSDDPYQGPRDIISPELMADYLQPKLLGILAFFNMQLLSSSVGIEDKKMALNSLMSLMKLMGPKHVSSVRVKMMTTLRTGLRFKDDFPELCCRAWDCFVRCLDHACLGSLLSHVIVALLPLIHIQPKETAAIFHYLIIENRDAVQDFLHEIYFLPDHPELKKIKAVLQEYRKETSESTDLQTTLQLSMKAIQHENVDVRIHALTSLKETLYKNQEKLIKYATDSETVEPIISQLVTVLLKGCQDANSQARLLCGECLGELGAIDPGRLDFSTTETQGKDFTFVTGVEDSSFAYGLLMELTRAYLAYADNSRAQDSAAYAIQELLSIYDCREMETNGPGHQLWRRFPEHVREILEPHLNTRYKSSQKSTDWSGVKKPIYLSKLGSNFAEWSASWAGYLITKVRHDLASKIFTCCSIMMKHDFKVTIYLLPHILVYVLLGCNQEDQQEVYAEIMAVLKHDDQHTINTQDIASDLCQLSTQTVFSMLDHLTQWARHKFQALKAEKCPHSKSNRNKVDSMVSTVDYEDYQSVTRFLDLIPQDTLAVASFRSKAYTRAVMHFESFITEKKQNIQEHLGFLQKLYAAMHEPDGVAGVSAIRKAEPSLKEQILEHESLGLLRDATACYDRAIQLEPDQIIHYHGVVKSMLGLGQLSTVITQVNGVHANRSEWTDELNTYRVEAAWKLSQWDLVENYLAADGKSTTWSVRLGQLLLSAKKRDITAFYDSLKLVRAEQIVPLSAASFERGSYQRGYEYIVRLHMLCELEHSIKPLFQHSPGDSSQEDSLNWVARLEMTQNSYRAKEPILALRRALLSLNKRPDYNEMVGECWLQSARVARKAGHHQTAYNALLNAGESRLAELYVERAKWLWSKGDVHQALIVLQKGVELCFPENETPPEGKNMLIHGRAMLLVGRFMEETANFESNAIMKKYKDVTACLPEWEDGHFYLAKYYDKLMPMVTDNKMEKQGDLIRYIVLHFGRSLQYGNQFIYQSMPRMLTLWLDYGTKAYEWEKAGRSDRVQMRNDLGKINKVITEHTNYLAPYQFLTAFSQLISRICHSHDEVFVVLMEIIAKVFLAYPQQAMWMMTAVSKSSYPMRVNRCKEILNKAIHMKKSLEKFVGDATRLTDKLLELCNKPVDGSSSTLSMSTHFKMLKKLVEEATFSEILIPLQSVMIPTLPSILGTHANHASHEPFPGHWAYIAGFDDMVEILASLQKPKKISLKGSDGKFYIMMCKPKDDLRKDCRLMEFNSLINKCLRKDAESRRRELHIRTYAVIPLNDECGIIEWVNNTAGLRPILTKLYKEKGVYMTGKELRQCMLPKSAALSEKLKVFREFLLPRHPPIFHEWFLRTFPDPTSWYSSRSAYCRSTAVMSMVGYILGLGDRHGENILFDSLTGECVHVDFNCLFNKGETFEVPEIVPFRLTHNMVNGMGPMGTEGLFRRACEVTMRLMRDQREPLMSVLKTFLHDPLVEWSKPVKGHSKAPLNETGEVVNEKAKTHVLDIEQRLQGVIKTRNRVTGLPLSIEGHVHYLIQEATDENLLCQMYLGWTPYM
Phosphatidylinositol 4-phosphate 3-kinase C2 domain-containing subunit beta (Homo sapiens), sequence (O00750 whole entry, the tested form may be a part): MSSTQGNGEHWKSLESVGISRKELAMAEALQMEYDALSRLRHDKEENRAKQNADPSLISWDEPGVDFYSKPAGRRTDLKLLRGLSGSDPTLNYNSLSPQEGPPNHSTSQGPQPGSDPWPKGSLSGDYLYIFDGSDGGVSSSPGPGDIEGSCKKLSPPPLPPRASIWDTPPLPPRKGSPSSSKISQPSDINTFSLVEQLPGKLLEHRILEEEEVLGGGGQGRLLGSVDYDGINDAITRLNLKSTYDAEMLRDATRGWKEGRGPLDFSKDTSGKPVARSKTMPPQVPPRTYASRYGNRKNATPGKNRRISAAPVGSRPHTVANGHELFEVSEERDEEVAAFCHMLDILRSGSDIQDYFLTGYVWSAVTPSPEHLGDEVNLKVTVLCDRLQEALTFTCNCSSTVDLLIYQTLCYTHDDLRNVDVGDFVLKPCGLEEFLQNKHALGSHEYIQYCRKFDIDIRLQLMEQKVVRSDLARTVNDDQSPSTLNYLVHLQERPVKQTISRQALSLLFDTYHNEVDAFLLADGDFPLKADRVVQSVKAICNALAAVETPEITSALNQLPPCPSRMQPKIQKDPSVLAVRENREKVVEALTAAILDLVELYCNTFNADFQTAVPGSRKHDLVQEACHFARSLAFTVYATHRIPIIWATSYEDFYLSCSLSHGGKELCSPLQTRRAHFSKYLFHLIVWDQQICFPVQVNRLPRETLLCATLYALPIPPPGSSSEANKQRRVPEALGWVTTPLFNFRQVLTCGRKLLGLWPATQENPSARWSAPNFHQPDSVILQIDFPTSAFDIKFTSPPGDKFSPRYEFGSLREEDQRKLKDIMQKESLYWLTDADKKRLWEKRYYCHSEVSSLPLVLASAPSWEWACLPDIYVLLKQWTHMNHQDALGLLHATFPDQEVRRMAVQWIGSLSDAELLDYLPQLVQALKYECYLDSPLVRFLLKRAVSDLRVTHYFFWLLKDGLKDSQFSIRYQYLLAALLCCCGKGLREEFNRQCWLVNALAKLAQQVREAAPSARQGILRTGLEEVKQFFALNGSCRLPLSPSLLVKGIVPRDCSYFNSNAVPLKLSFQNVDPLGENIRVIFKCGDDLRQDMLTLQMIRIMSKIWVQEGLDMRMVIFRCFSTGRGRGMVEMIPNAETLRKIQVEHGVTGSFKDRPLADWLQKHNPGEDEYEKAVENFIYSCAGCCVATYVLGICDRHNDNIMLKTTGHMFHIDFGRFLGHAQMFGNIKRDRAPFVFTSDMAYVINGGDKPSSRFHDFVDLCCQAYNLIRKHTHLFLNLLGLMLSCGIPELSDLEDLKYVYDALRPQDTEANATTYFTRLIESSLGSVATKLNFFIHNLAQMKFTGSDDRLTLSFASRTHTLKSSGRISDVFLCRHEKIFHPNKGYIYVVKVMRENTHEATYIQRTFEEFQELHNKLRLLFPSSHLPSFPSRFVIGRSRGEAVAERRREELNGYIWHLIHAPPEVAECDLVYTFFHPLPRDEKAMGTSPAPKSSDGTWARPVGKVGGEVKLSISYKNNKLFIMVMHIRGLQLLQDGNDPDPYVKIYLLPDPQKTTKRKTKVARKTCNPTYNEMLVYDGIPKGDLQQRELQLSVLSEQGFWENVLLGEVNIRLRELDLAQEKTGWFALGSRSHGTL
Kappa-type opioid receptor (Homo sapiens), sequence (P41145 whole entry): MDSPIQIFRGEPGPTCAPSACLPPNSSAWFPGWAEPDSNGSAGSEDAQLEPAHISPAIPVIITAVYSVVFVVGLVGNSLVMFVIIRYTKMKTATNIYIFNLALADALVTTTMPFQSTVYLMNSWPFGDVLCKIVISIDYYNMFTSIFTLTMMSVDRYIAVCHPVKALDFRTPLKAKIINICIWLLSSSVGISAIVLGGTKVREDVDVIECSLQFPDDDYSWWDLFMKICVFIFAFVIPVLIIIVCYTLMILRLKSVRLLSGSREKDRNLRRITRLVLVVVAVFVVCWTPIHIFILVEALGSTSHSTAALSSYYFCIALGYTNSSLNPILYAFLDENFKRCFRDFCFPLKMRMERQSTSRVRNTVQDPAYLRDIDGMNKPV

For `Cc1cncc(-n2nc(C)c(-c3cc(N4CC5CCC(C4)O5)nc4c(-c5ccn[nH]5)cnn34)c2C)c1`, the IC50 [1] was 0.01 µM and the IC50 (CWR22R [2]) was 0.234 µM.
For `Cc1nn(-c2cccnc2)c(C)c1-c1cc(N2C3CCC2COC3)nc2c(-c3ccn[nH]3)cnn12`, the IC50 (CWR22R [2]) was 0.332 µM.
For `Cc1nn(-c2cccnc2)c(C)c1-c1cc(N2CC3CCC(C2)O3)nc2c(-c3ccn[nH]3)cnn12` [listing 1 of 2 here], the Activity (T-24) was “Active”, the Activity (NCI-H69) was “Active” and the inhibition (LoVo [3]) was “Active”. The TGI (CWR22R [4]) was “Active”, the inhibition (LoVo [5]) was “Dose-dependent-effect” and the Activity (MDA-MB-453) was “Active”. For the same compound, the Activity (MDA-MB-436) was “Active”, the Activity (CWR22R [6]) was “Active” and the inhibition [7] was “Active”. For the same compound, the Activity (HCT-116) was “Active”, the inhibition (Homo sapiens) was greater than 80% and the Activity (MDA-MB-231) was “Active”. The Activity (JeKo-1 [8]) was “Active”, the inhibition (LoVo [9]) was “Dose-dependent-effect” and the Activity (KATO III) was “Active”. For the same compound, the inhibition [10] was greater than 80%, the Activity (MCF7) was “Active” and the Activity (LoVo [11]) was “Dose-dependent-effect”. The Activity (HepG2) was “Active”, the inhibition (LoVo [12]) was “Dose-dependent-effect” and the Activity (U2OS) was “Active”. For the same compound, the Activity (JeKo-1 [13]) was “Active”, the inhibition [14] was greater than 80% and the Activity (OVCAR-8) was “Active”. The Activity (NCI-H1703 [15]) was “Active”, the Activity (Huh-7) was “Active” and the Activity (A2780) was “Active”. For the same compound, the inhibition [16] was greater than 80%, the Activity (SK-OV-3) was “Active” and the Activity (A549) was “Active”. For the same compound, the Activity (LNCaP) was “Active”.
For `Cc1n[nH]c(C)c1-c1cc(N2CC3CCC(C2)O3)n2ncc(-c3cnn(C)c3C)c2n1`, the IC50 [1] was greater than 0.5 µM and the IC50 (CWR22R [2]) was greater than 10 µM.
Work on `Cc1n[nH]c(C)c1-c1cc(N2CC3CCC(C2)O3)nc2c(-c3ccn[nH]3)cnn12` yielded an IC50 (CWR22R [2]) of 0.614 µM.
In the case of `Cc1nn(-c2cccnc2)c(C)c1-c1cc(N2CC3CCC(C2)O3)nc2c(-c3ccn[nH]3)cnn12` [listing 2 of 2 here], the IC50 (CWR22R [2]) is reported as 0.216 µM.
For `Cc1n[nH]c(C)c1-c1cc(N2CC3CCC(C2)O3)nc2c(-c3ccccc3)cnn12`, the IC50 (CWR22R [2]) was 0.872 µM.
With `Cc1n[nH]c(C)c1-c1cc(C23CCC(CNC2)O3)nc2c(-c3cccs3)cnn12` (stereo unspecified) the IC50 (CWR22R [2]) was 0.988 µM.
In the case of `CCOc1cncc(-n2nc(C)c(-c3cc(N4CC5CCC(C4)O5)nc4c(-c5ccn[nH]5)cnn34)c2C)c1`, the IC50 (CWR22R [2]) is reported as 0.515 µM.
In the case of `Cc1nn(-c2cncc(C#N)c2)c(C)c1-c1cc(N2CC3CCC(C2)O3)nc2c(-c3ccn[nH]3)cnn12`, the IC50 (CWR22R [2]) is reported as 1.41 µM.
`C[C@@H]1COCCN1c1cc(C2([S@](C)(=N)=O)CC2)nc(-c2cc[nH]c3nccc2-3)n1` [CERALASERTIB] showed an Activity (LoVo [17]) of 19.3%, an inhibition in vivo at 50 mg/kg (JeKo-1 [18]) of 90.6% and an Activity (LoVo [19]) of 24%. For the same compound, the Activity (LoVo [20]) was 1.93%, the inhibition in vivo at 50 mg/kg (NCI-H1703 [21]) was 34% and the inhibition in vivo at 50 mg/kg (LoVo [22]) was 57%. The viability at 3 µM (LoVo [23]) was 54.7% and the IC50 (CWR22R [2]) was 0.92 µM.
With `Cn1cncc1-c1c(F)cncc1NC(=O)c1c(N)nn2cc(F)cnc12` [TUVUSERTIB] the IC50 [1] was less than 1 µM and the IC50 (NCI-H146) was 0.73 µM.
`Cc1nn(-c2cccnc2)c(C)c1-c1cc(N2C[C@H]3C[C@@H]2CO3)nc2c(-c3ccn[nH]3)cnn12` was tested, and the IC50 (CWR22R [2]) was greater than 10 µM.
With `COc1cncc(-n2nc(C)c(-c3cc(N4CC5CCC(C4)O5)nc4c(-c5ccn[nH]5)cnn34)c2C)c1` the IC50 (CWR22R [2]) was 0.37 µM.
In the case of `Cc1nn(-c2cncc(Cl)c2)c(C)c1-c1cc(N2CC3CCC(C2)O3)nc2c(-c3ccn[nH]3)cnn12`, the IC50 (CWR22R [2]) is reported as 0.675 µM.
Compound `Cc1nn(-c2cncnc2)c(C)c1-c1cc(N2CC3CCC(C2)O3)nc2c(-c3ccn[nH]3)cnn12` has an IC50 (CWR22R [2]) of 1.41 µM.
